Assay type in all cases: functional
Experiment [1] relates to Staphylococcus aureus. The experiment can be described thus: Antibacterial activity against methicillin-resistant Staphylococcus aureus NRS-271 assessed as inhibition of bacterial growth incubated for 18 hrs by two fold serial dilution assay.
Experiment [2] deals with Staphylococcus aureus. As to the kind of experiment: Antibacterial activity against methicillin-resistant Staphylococcus aureus XJ036 assessed as inhibition of bacterial growth incubated for 18 hrs by two fold serial dilution assay.
Experiment [3] deals with Staphylococcus aureus. As to the kind of experiment: Antibacterial activity against methicillin-resistant Staphylococcus aureus NRS-108 assessed as inhibition of bacterial growth incubated for 18 hrs by two fold serial dilution assay.
Experiment [4] relates to Staphylococcus aureus. As to the kind of experiment: Antibacterial activity against methicillin-resistant Staphylococcus aureus NRS-70 assessed as inhibition of bacterial growth incubated for 18 hrs by two fold serial dilution assay.
In experiment [5] the test system is Staphylococcus aureus. As to the kind of experiment: Antibacterial activity against methicillin-resistant Staphylococcus aureus NRS-1 assessed as inhibition of bacterial growth incubated for 18 hrs by two fold serial dilution assay.
For experiment [6], the system named is Staphylococcus aureus. The experiment can be described thus: Antibacterial activity against methicillin-resistant Staphylococcus aureus XJ017 assessed as inhibition of bacterial growth incubated for 18 hrs by two fold serial dilution assay.
Experiment [7] deals with Staphylococcus aureus. As to the kind of experiment: Antibacterial activity against Staphylococcus aureus Newman assessed as inhibition of bacterial growth incubated for 18 hrs by two fold serial dilution assay.
The subject of experiment [8] is Staphylococcus aureus. As to the kind of experiment: Antibacterial activity against methicillin-resistant Staphylococcus aureus NRS-100 assessed as inhibition of bacterial growth incubated for 18 hrs by two fold serial dilution assay.
Experiment [9] concerns Staphylococcus aureus. The experiment can be described thus: Antibacterial activity against methicillin-resistant Staphylococcus aureus USA300 assessed as inhibition of bacterial growth incubated for 18 hrs by two fold serial dilution assay.

The structures appear in SMILES notation. ≈ marks a conversion by molar mass, not a printed value.

As usually defined, the MIC is the lowest concentration found to suppress growth. As for `CN(C)C(=O)CC[C@](C)(O)[C@H]1CC[C@]2(C)[C@@H]1[C@H](O)C[C@@H]1[C@@]3(C)Cc4nc5ccccc5nc4C(C)(C)[C@@H]3CC[C@]12C`, the minimum inhibitory concentration (MIC) in experiment [1] is 4 µg/mL (≈ 7.12 µM); in experiment [2], 8 µg/mL (≈ 14.2 µM); in [3] it was 4 µg/mL (≈ 7.12 µM); in [4], 4 µg/mL (≈ 7.12 µM); in experiment [5], 4 µg/mL (≈ 7.12 µM); in [6], above 64 µg/mL. For the same compound, the MIC in experiment [7] amounted to 4 µg/mL (≈ 7.12 µM); in experiment [8] it was 8 µg/mL (≈ 14.2 µM); in [9], 4 µg/mL (≈ 7.12 µM).
Turning to `CC1(C)c2nc3ccccc3nc2C[C@]2(C)[C@H]3C[C@@H](O)[C@@H]4[C@@H]([C@@](C)(O)CCC(=O)Nc5ccc(C(F)(F)F)cc5)CC[C@@]4(C)[C@]3(C)CC[C@@H]12`, the minimum inhibitory concentration (MIC) in [7] and in [9] was above 64 µg/mL in each case.
As for `CCNC(=O)CC[C@](C)(O)[C@H]1CC[C@]2(C)[C@@H]1[C@H](O)C[C@@H]1[C@@]3(C)Cc4nc5ccccc5nc4C(C)(C)[C@@H]3CC[C@]12C`, the minimal inhibitory concentration (MIC) was 4 µg/mL (≈ 7.12 µM) in experiment [1]; 4 µg/mL (≈ 7.12 µM) in experiment [2]; 4 µg/mL (≈ 7.12 µM) in experiment [3]; 4 µg/mL (≈ 7.12 µM) in [4]; above 64 µg/mL in experiment [5]; 8 µg/mL (≈ 14.2 µM) in experiment [6]. In addition, the minimum inhibitory concentration (MIC) in experiment [7], in experiment [8] and in experiment [9] was 4 µg/mL (≈ 7.12 µM) throughout.
In the case of `CC1(C)c2c(cnc3cccn23)C[C@]2(C)[C@H]3C[C@@H](O)[C@@H]4[C@@H]([C@@](C)(O)CCCO)CC[C@@]4(C)[C@]3(C)CC[C@@H]12`, the minimal inhibitory concentration (MIC) is 4 µg/mL (≈ 7.86 µM) in [7] and above 64 µg/mL in experiment [9].
The matching figures for `CC1(C)c2nc3ccccc3nc2C[C@]2(C)[C@H]3C[C@@H](O)[C@@H]4[C@@H]([C@]5(C)CCC(=O)O5)CC[C@@]4(C)[C@]3(C)CC[C@@H]12`: 4 µg/mL (≈ 7.74 µM) and 8 µg/mL (≈ 15.5 µM).
The matching figures for `COC(=O)CC[C@](C)(O)[C@H]1CC[C@]2(C)[C@@H]1[C@H](O)C[C@@H]1[C@@]3(C)Cc4nc5ccccc5nc4C(C)(C)[C@@H]3CC[C@]12C`: above 64 µg/mL and above 64 µg/mL.
`CC1(C)S[C@@H]2[C@H](NC(=O)[C@H](N)c3ccccc3)C(=O)N2[C@H]1C(=O)O` [AMPICILLIN]: the MIC in [1] amounted to 4 µg/mL (≈ 11.4 µM); in experiment [2] it was 8 µg/mL (≈ 22.9 µM); in experiment [3] it was 2 µg/mL (≈ 5.72 µM); in [4], 8 µg/mL (≈ 22.9 µM); in experiment [6], 32 µg/mL (≈ 91.6 µM); in experiment [8], 0.063 µg/mL (≈ 0.18 µM).
As for `CC(C)=CCC[C@](C)(O)[C@H]1CC[C@]2(C)[C@@H]1[C@H](O)C[C@@H]1[C@@]3(C)Cc4nc5ccccc5nc4C(C)(C)[C@@H]3CC[C@]12C`, the MIC in experiment [7] and in [9] was above 64 µg/mL each time.
With `CC1(C)c2nc(N)sc2C[C@]2(C)[C@H]3C[C@@H](O)[C@@H]4[C@@H]([C@@](C)(O)CCCO)CC[C@@]4(C)[C@]3(C)CC[C@@H]12`, the MIC was 16 µg/mL (≈ 32.6 µM) in experiment [7] and above 64 µg/mL in experiment [9].
In the case of `CC1(C)c2nc3ccccc3nc2C[C@]2(C)[C@H]3C[C@@H](O)[C@@H]4[C@@H]([C@@](C)(O)CCC(=O)Nc5cnccn5)CC[C@@]4(C)[C@]3(C)CC[C@@H]12`, the MIC was 8 µg/mL (≈ 13.1 µM) in experiment [1]; 4 µg/mL (≈ 6.54 µM) in experiment [2]; 4 µg/mL (≈ 6.54 µM) in experiment [3]; 4 µg/mL (≈ 6.54 µM) in [4]; above 64 µg/mL in [5]; 16 µg/mL (≈ 26.2 µM) in experiment [6]. Further, the values for the minimum inhibitory concentration (MIC) in experiment [7], in experiment [8] and in [9] were 2 µg/mL (≈ 3.27 µM), 4 µg/mL (≈ 6.54 µM) and 2 µg/mL (≈ 3.27 µM), respectively.
`CCCNC(=O)CC[C@](C)(O)[C@H]1CC[C@]2(C)[C@@H]1[C@H](O)C[C@@H]1[C@@]3(C)Cc4nc5ccccc5nc4C(C)(C)[C@@H]3CC[C@]12C`: the MIC in [7] and in [9] was above 64 µg/mL throughout.
For `CCCCNC(=O)CC[C@](C)(O)[C@H]1CC[C@]2(C)[C@@H]1[C@H](O)C[C@@H]1[C@@]3(C)Cc4nc5ccccc5nc4C(C)(C)[C@@H]3CC[C@]12C`, the MIC in experiment [7] and in [9] was above 64 µg/mL throughout.
As for `CC1(C)c2nc3ccccc3nc2C[C@]2(C)[C@H]3C[C@@H](O)[C@@H]4[C@@H]([C@@](C)(O)CCC(=O)O)CC[C@@]4(C)[C@]3(C)CC[C@@H]12`, the minimal inhibitory concentration (MIC) in experiment [7] and in experiment [9] was 16 µg/mL (≈ 29.9 µM) throughout.
Regarding `CC1(C)c2nc3ccccc3nc2C[C@]2(C)[C@H]3C[C@@H](O)[C@@H]4[C@@H]([C@@](C)(O)CCC(=O)Nc5ccccc5)CC[C@@]4(C)[C@]3(C)CC[C@@H]12`, the MIC in [7] and in experiment [9] was above 64 µg/mL in each case.
Regarding `CC1(C)c2nc3ccccc3nc2C[C@]2(C)[C@H]3C[C@@H](O)[C@@H]4[C@@H]([C@]5(C)CCCO5)CC[C@@]4(C)[C@]3(C)CC[C@@H]12`, the MIC in experiment [7] and in [9] was above 64 µg/mL each time.
In the case of `CC1(C)c2nccnc2C[C@]2(C)[C@H]3C[C@@H](O)[C@@H]4[C@@H]([C@@](C)(O)CCCO)CC[C@@]4(C)[C@]3(C)CC[C@@H]12`, the minimal inhibitory concentration (MIC) in experiment [7] and in [9] was above 64 µg/mL each time.

The values above are taken from ChEMBL document CHEMBL5614428, “Synthesis and antibacterial activities of heterocyclic ring-fused 20(S)-protopanaxadiol derivatives” (Bioorg Med Chem, 2024).
